Test results taken from patent publication US9241488B2, “Azole derivative, method for producing azole derivative, and intermediate compound” (KUREHA CORPORATION, priority 2011, dated 2016).
Like-named read-outs stand apart in the source and are kept apart here.

Key:
[1] = tested on: wheat leaf blight-causing microorganisms; assay: Anti-bacterial effect on wheat leaf blight-causing microorganisms (PDA plate, mycelial growth inhibition); assay type: cell-based, Septoria tritici; settings: 1.25 mg/L in PDA plate medium, 25° C., 14 days
Protocol: In Test Examples, an anti-bacterial effect of a compound in accordance with the present invention on the wheat leaf blight-causing microorganisms was tested, and was compared with the anti-bacterial effect of a comparative compound (1).
A dimethyl sulfoxide solution (0.6 ml) containing a compound in accordance with the present invention was added to a PDA medium (potato dextrose agar medium) (60 ml) having about 60° C., and the resultant mixture was mixed thoroughly in a 100-ml conical flask. The mixture was poured into a dish, and was solidified. […]
On the other hand, a subject microorganism previously cultured on a plate medium was cut out with use of a cork borer whose diameter was 4 mm, and the wheat leaf blight-causing microorganism on the plate medium thus cut out was inoculated to the chemical-containing plate medium described above. After such inoculation, the chemical-containing plate medium was incubated at 25° C. for 14 days, and then diameters of its flora were measured. A % mycelial growth inhibition was calculated with use of the formula. R=100(dc−dt)/dc (where R=% mycelial extension inhibition, dc=flora diameter in untreated plate, dt=flora diameter in treated plate)
The results obtained as described above were evaluated on a five-point scale according to the following criteria.
• 5: % Mycerial growth inhibition of 80% or higher • 4: % Mycerial growth inhibition of less than 80 to 60% or higher • 3: % Mycerial growth inhibition of less than 60 to 40% or higher • 2: % Mycerial growth inhibition of less than 40 to 20% or higher • 1: % Mycerial growth inhibition of less than 20%

[2] = tested on: wheat-brown-rust-causing microorganisms; assay: Controlling effect on wheat brown rust (spray, pot test); assay type: in vivo, Puccinia recondita; settings: 1 mg/L sprayed at 1,000 L/ha, wheat NORIN No. 61, 9 to 14 days after inoculation
Protocol: Onto a wheat plant (cultivar: NORIN No. 61) grown to the two-leaf stage with use of a square plastic pot (6 cm×6 cm), a wettable formulation such as Formulation Example 1 which was diluted and suspended in water at a concentration of 1 mg/L was sprayed at a rate of 1,000 L/ha. The sprayed leaves were air-dried, and inoculated with spore suspension of wheat-brown-rust-causing microorganisms (adjusted at 200 spores/vision, […] was added at 60 ppm) by spraying, and kept at 25° C. and a high humidity for 48 hours. Thereafter, the plant was kept in a greenhouse. Nine to fourteen days after inoculation, the wheat brown rust lesion degree was evaluated. The protective value was calculated by the following equation. Protective value (%)=(1-mean lesion degree in sprayed plot/mean lesion degree in unsprayed plot)×100 [table] [table]

[3] = tested on: Wheat Septoria nodorum blotch microorganism (Phaeosphaeria nodorum); assay: Anti-bacterial effect on various microorganisms (plate medium), P.n; assay type: cell-based
[4] = tested on: Wheat eye spot (Pseudocercoporella herpotrichoides); assay: Anti-bacterial effect on various microorganisms (plate medium), P.h; assay type: cell-based
[5] = tested on: Wheat fusarium blight (Fusarium graminearum); assay type: cell-based
[6] = tested on: Barley loose smut (Ustilago nuda); assay: Anti-bacterial effect on various microorganisms (plate medium), U.n; assay type: cell-based
[7] = tested on: Rice blast (Pyricularia oryzae); assay type: cell-based
[8] = tested on: Rice bakanae disease (Giberella fujikuroi); assay: Anti-bacterial effect on various microorganisms (plate medium), G.f; assay type: cell-based
[9] = tested on: Alternaria blotch (Alternaria alternata); assay: Anti-bacterial effect on various microorganisms (plate medium), A.m; assay type: cell-based
[10] = tested on: Sclerotinia rot (Sclerotinia sclerotiorum); assay: Anti-bacterial effect on various microorganisms (plate medium), S.s; assay type: cell-based
[11] = tested on: Gray mold (Botritis cinerea); assay: Anti-bacterial effect on various microorganisms (plate medium), B.c; assay type: cell-based
[12] = tested on: Cucumber fusarium wilt (Fusarium oxysporum); assay: Anti-bacterial effect on various microorganisms (plate medium), F.c; assay type: cell-based
[13] = tested on: Barley leaf blotch (Rhynchosporium secalis); assay: Anti-bacterial effect on various microorganisms (plate medium), R. sec; assay type: cell-based
[14] = tested on: Wheat pink snow mold (Microdochium nivale); assay: Anti-bacterial effect on various microorganisms (plate medium), M.n; assay type: cell-based
[15] = tested on: Rice bacterial seeding blight (Rhizopus oryzae); assay: Anti-bacterial effect on various microorganisms (plate medium), R.o; assay type: cell-based

Compound	Growth inhibition grade [1]	Protective value [2]	Growth inhibition grade P.n ([3]; 1.25 mg/L)	Growth inhibition grade P.n ([3]; 5 mg/L)	Growth inhibition grade P.h ([4]; 1.25 mg/L)	Growth inhibition grade P.h ([4]; 5 mg/L)	Growth inhibition grade F.g ([5]; 1.25 mg/L)	Growth inhibition grade F.g ([5]; 5 mg/L)	Growth inhibition grade U.n ([6]; 1.25 mg/L)	Growth inhibition grade U.n ([6]; 5 mg/L)	Growth inhibition grade P.o ([7]; 1.25 mg/L)	Growth inhibition grade P.o ([7]; 5 mg/L)	Growth inhibition grade G.f ([8]; 1.25 mg/L)	Growth inhibition grade G.f ([8]; 5 mg/L)	Growth inhibition grade A.m ([9]; 1.25 mg/L)	Growth inhibition grade A.m ([9]; 5 mg/L)	Growth inhibition grade S.s ([10]; 1.25 mg/L)	Growth inhibition grade S.s ([10]; 5 mg/L)	Growth inhibition grade B.c ([11]; 1.25 mg/L)	Growth inhibition grade B.c ([11]; 5 mg/L)	other results
COC[C@]1(CBr)CC[C@@H](Cc2ccc(F)cc2)[C@]1(O)Cn1cncn1 (racemic) [Compound I-198, (1RS,2RS,5SR)-5-(4-fluorobenzyl)-2-bromomethyl-2-methoxymethyl-1H-[1,2,4]triazole-1-ylmethylcyclopentanol]	5 (% Mycerial growth inhibition of 80% or higher)	4 (61 to 80)	4 (% Mycerial growth inhibition of less than 80 to 60% or higher)	5 (% Mycerial growth inhibition of 80% or higher)	4 (% Mycerial growth inhibition of less than 80 to 60% or higher)	5 (% Mycerial growth inhibition of 80% or higher)	4 (% Mycerial growth inhibition of less than 80 to 60% or higher)	5 (% Mycerial growth inhibition of 80% or higher)	4 (% Mycerial growth inhibition of less than 80 to 60% or higher)	5 (% Mycerial growth inhibition of 80% or higher)	5 (% Mycerial growth inhibition of 80% or higher)	5 (% Mycerial growth inhibition of 80% or higher)	5 (% Mycerial growth inhibition of 80% or higher)	5 (% Mycerial growth inhibition of 80% or higher)	4 (% Mycerial growth inhibition of less than 80 to 60% or higher)	5 (% Mycerial growth inhibition of 80% or higher)	5 (% Mycerial growth inhibition of 80% or higher)	5 (% Mycerial growth inhibition of 80% or higher)	5 (% Mycerial growth inhibition of 80% or higher)	5 (% Mycerial growth inhibition of 80% or higher)	Growth inhibition grade F.c ([12]; 1.25 mg/L): 5 (% Mycerial growth inhibition of 80% or higher); Growth inhibition grade F.c ([12]; 5 mg/L): 5 (% Mycerial growth inhibition of 80% or higher); Growth inhibition grade R. sec ([13]; 1.25 mg/L): 5 (% Mycerial growth inhibition of 80% or higher); Growth inhibition grade R. sec ([13]; 5 mg/L): 5 (% Mycerial growth inhibition of 80% or higher); Growth inhibition grade M.n ([14]; 1.25 mg/L): 4 (% Mycerial growth inhibition of less than 80 to 60% or higher); Growth inhibition grade M.n ([14]; 5 mg/L): 5 (% Mycerial growth inhibition of 80% or higher); Growth inhibition grade R.o ([15]; 1.25 mg/L): 5 (% Mycerial growth inhibition of 80% or higher); Growth inhibition grade R.o ([15]; 5 mg/L): 5 (% Mycerial growth inhibition of 80% or higher)
CCOC[C@]1(CCl)CC[C@@H](Cc2ccc(F)cc2)[C@]1(O)Cn1cncn1 (racemic) [Compound I-226, (1RS,2RS,5SR)-5-(4-fluorobenzyl)-2-chloromethyl-2-ethoxymethyl-1H-[1,2,4]triazole-1-ylmethylcyclopentanol]	5 (% Mycerial growth inhibition of 80% or higher)	4 (61 to 80)	5 (% Mycerial growth inhibition of 80% or higher)	5 (% Mycerial growth inhibition of 80% or higher)	4 (% Mycerial growth inhibition of less than 80 to 60% or higher)	5 (% Mycerial growth inhibition of 80% or higher)	5 (% Mycerial growth inhibition of 80% or higher)	5 (% Mycerial growth inhibition of 80% or higher)	5 (% Mycerial growth inhibition of 80% or higher)	5 (% Mycerial growth inhibition of 80% or higher)	5 (% Mycerial growth inhibition of 80% or higher)	5 (% Mycerial growth inhibition of 80% or higher)	5 (% Mycerial growth inhibition of 80% or higher)	5 (% Mycerial growth inhibition of 80% or higher)	4 (% Mycerial growth inhibition of less than 80 to 60% or higher)	5 (% Mycerial growth inhibition of 80% or higher)	5 (% Mycerial growth inhibition of 80% or higher)	5 (% Mycerial growth inhibition of 80% or higher)	5 (% Mycerial growth inhibition of 80% or higher)	5 (% Mycerial growth inhibition of 80% or higher)	Growth inhibition grade F.c ([12]; 1.25 mg/L): 5 (% Mycerial growth inhibition of 80% or higher); Growth inhibition grade F.c ([12]; 5 mg/L): 5 (% Mycerial growth inhibition of 80% or higher); Growth inhibition grade R. sec ([13]; 1.25 mg/L): 5 (% Mycerial growth inhibition of 80% or higher); Growth inhibition grade R. sec ([13]; 5 mg/L): 5 (% Mycerial growth inhibition of 80% or higher); Growth inhibition grade M.n ([14]; 1.25 mg/L): 5 (% Mycerial growth inhibition of 80% or higher); Growth inhibition grade M.n ([14]; 5 mg/L): 5 (% Mycerial growth inhibition of 80% or higher); Growth inhibition grade R.o ([15]; 1.25 mg/L): 5 (% Mycerial growth inhibition of 80% or higher); Growth inhibition grade R.o ([15]; 5 mg/L): 5 (% Mycerial growth inhibition of 80% or higher)
COC[C@]1(CCl)CC[C@@H](Cc2ccccc2)[C@]1(O)Cn1cncn1 (racemic) [Compound I-187, (1RS,2RS,5SR)-5-benzyl-2-chloromethyl-2-methoxymethyl-1H-[1,2,4]triazole-1-ylmethylcyclopentanol]	5 (% Mycerial growth inhibition of 80% or higher)	4 (61 to 80)	4 (% Mycerial growth inhibition of less than 80 to 60% or higher)	5 (% Mycerial growth inhibition of 80% or higher)	5 (% Mycerial growth inhibition of 80% or higher)	5 (% Mycerial growth inhibition of 80% or higher)	5 (% Mycerial growth inhibition of 80% or higher)	5 (% Mycerial growth inhibition of 80% or higher)	5 (% Mycerial growth inhibition of 80% or higher)	5 (% Mycerial growth inhibition of 80% or higher)	5 (% Mycerial growth inhibition of 80% or higher)	5 (% Mycerial growth inhibition of 80% or higher)	5 (% Mycerial growth inhibition of 80% or higher)	5 (% Mycerial growth inhibition of 80% or higher)	4 (% Mycerial growth inhibition of less than 80 to 60% or higher)	5 (% Mycerial growth inhibition of 80% or higher)	5 (% Mycerial growth inhibition of 80% or higher)	5 (% Mycerial growth inhibition of 80% or higher)	5 (% Mycerial growth inhibition of 80% or higher)	5 (% Mycerial growth inhibition of 80% or higher)	Growth inhibition grade F.c ([12]; 1.25 mg/L): 5 (% Mycerial growth inhibition of 80% or higher); Growth inhibition grade F.c ([12]; 5 mg/L): 5 (% Mycerial growth inhibition of 80% or higher); Growth inhibition grade R. sec ([13]; 1.25 mg/L): 5 (% Mycerial growth inhibition of 80% or higher); Growth inhibition grade R. sec ([13]; 5 mg/L): 5 (% Mycerial growth inhibition of 80% or higher); Growth inhibition grade M.n ([14]; 1.25 mg/L): 5 (% Mycerial growth inhibition of 80% or higher); Growth inhibition grade M.n ([14]; 5 mg/L): 5 (% Mycerial growth inhibition of 80% or higher); Growth inhibition grade R.o ([15]; 1.25 mg/L): 5 (% Mycerial growth inhibition of 80% or higher); Growth inhibition grade R.o ([15]; 5 mg/L): 5 (% Mycerial growth inhibition of 80% or higher)
